Data on 9 compounds can be found in ChEMBL document CHEMBL1132561, “Identification and characterization of m1 selective muscarinic receptor antagonists1” (J Med Chem, 1999).

Assay [1] has as its target T1, Muscarinic acetylcholine receptor M2 (Homo sapiens, UniProt P08172).
T1 sequence (P08172 whole entry): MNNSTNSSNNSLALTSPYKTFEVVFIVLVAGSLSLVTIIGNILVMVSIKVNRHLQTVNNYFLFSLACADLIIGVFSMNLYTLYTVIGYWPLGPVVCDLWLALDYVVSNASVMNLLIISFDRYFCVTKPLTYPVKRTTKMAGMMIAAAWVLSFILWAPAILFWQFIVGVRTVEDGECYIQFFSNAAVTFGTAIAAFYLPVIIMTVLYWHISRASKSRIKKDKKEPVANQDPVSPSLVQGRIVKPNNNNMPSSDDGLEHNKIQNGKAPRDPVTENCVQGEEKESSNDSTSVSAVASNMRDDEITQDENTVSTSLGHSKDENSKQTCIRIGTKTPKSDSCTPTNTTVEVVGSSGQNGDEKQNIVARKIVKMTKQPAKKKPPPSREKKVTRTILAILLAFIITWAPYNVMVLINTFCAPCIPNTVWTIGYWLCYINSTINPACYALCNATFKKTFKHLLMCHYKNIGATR
Nature of the assay: biochemical. It counts as cell-based, CHO.
Description: Displacement of [3H]NMS binding to human Muscarinic acetylcholine receptor M2 using membranes from transfected CHO cells

Assay [2] deals with T2, Muscarinic acetylcholine receptor M4 (Homo sapiens, UniProt P08173).
T2 sequence (P08173 whole entry): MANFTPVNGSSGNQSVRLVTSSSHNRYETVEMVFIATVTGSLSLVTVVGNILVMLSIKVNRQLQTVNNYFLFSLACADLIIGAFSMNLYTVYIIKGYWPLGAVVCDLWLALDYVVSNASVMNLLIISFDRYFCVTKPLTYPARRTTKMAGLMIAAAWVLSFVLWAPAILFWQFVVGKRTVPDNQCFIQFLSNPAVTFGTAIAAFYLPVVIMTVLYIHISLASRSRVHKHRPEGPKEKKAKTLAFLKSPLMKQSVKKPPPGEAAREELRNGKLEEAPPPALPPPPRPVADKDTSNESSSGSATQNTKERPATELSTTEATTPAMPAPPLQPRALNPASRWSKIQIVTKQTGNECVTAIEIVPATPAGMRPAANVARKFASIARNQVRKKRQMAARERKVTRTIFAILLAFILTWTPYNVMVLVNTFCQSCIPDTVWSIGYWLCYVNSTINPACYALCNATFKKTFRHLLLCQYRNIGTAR
Nature of the assay: biochemical. It counts as cell-based, CHO.
Description: Displacement of [3H]NMS binding to human Muscarinic acetylcholine receptor M4 using membranes from transfected CHO cells

The structures appear in SMILES notation.

Turning to `CCN1CCC(c2ccccc2)=C(C(=O)OCc2ccccc2)C1`, the half-maximal inhibitory concentration (IC50) was determined as 451 nM in assay [1] and 473 nM in assay [2].
Taken in the same sequence, the figures for `CCCCCCOC(=O)[C@H]1CN(CC)CC[C@H]1c1ccccc1` were 405 nM and 573 nM.
As to `CCCCCCCCOC(=O)C1=C(c2ccccc2)CCN(CC)C1`, the IC50 in assay [1] was 52.5 nM; in assay [2], 259 nM.
As for `CCN1CCC(c2ccccc2)=C(C(=O)OCC(c2ccccc2)c2ccccc2)C1`, the IC50 amounted to 2570 nM in assay [1] and 7710 nM in assay [2].
In the case of `CCN1CCC(c2ccccc2)=C(C(=O)OCCCc2ccccc2)C1`, the IC50 in assay [1] came out at 1040 nM; in assay [2], 1160 nM.
As to `CCN1CC=C(c2ccccc2)C(C(=O)OCC(c2ccccc2)c2ccccc2)C1` (configuration not stated), the IC50 in assay [1] came to 475 nM; in assay [2] it was 4160 nM.
On to `CCN1CC=C(c2ccccc2)C(C(=O)OCc2ccccc2)C1` (configuration not stated), for which the 50% inhibitory concentration (IC50) turned out to be 241 nM in assay [1] and 146 nM in assay [2].
For `CCN1CC=C(c2ccccc2)C(C(=O)OCCCc2ccccc2)C1` (configuration not stated), the results for the IC50 in assay [1] and in assay [2] were 2210 nM and 1130 nM, respectively.
In assay [2], `CCCCCCCCOC(=O)C1CN(CC)CC=C1c1ccccc1` (configuration not stated) came in with an IC50 of 1250 nM.

The IC50 is the concentration that inhibits the measured activity by half.
